Measured values reported in US9789101B2, “Methods and compositions for treating microbial infection using pyrroloquinone” (HELPERBY THERAPEUTICS LIMITED, priority 2010, dated 2017).
Structures can show the parent of a compound that is named as a salt. Where two headings read alike, the source gives them in different places.

Tested on: log phase Staphylococcus aureus
Test: Chequerboard analysis of HT00800059 and HT61 against log phase Staphylococcus aureus
Type: cell-based, Staphylococcus aureus (Oxford)
Protocol: Staphylococcus aureus (Oxford); Gram positive; Reference strain.
Log phase growth of methicilin sensitive Staphylococcus aureus (MSSA) was carried out as follows: • Bacteria were grown in 10 ml of nutrient broth (No. 2, (Oxoid)) overnight at 37° C. with continuous shaking at 120 rpm. The overnight cultures were diluted 1000× with iso-sensitest broth. The cultures were incubated at 37° C. with shaking for 1-2 hours to reach log CFU 6. Viability of the bacteria was estimated by colony forming unit (CFU) counts. From serial 10-fold dilutions of the experimental cultures, 100 μl samples were added to triplicate plates of nutrient agar plates (Oxoid) or blood agar plates (Oxoid). CFUs were counted after incubation of the plates at 37° C. for 24 hours.
Bacterial cultures: 10 μl of overnight cultures was added to 10 ml of fresh iso-sensitest broth to make the inoculation to 10^6 CFU/ml. 290 μl of the cell suspension was added to each well of the 96 well plate, which was incubated at 37° C. for 24 hours. 300 μl of iso-sensitest broth without bacterial cells were added to wells of the plate as a no bacterial control.
MIC determination: The optical density of the bacterial cells was read at 405 nm using a plate reader (Bio TEK). The MIC concentration was determined as the lowest concentration of drug which inhibits the bacterial growth.
HT61 was dissolved in DMSO to the stock concentration of 10 mg/ml.
HT00800059 was dissolved in H2O to the stock solution 30.07 mg/ml.
The drugs were first diluted as follows: • 28.8 μl of HT61 at 10 mg/ml was added into 271.2 μl of H2O followed by diluting 2 fold for 6 times.
Both drugs were mixed as following pattern: 10 μl of HT00800059 from each dilution was added into the wells of a 96 well plate from top to bottom and 10 μl of HT61 from each dilution was added to the same 96 well plate from left to right. After addition of 280 μl log phase cell suspension, the final concentrations of drugs for each well in the 96 well plate are shown in the table below.
Incubation of the compounds with the bacterial suspension was carried out for 24 hours. The kill effect of the drug combination and signal drug MIC was measured by optical density reading at 405 nm with a plate reader (Bio TEK). The MIC concentration was determined as the lowest concentration of drug which inhibits the bacterial growth.
The fractional inhibitory concentration (FIC) index was carried out as follows: (MIC of drug A, tested in combination)/(MIC of drug A, tested alone)+(MIC of drug B, tested in combination)/(MIC of drug B, tested alone). The interaction was defined as synergistic if the FIC index was <1, additive if the FIC index was =1 and antagonistic if the FIC index was >1.

CCCCOc1ccc(C(=O)CCN2CCCCC2)cc1 [HT00800059, dyclonine (1-(4-Butoxyphenyl)-3-(1-piperidinyl)-1-propanone) hydrochloride]
MIC (Staphylococcus aureus): 512 µg/mL | MIC (Staphylococcus aureus, read-out: alone MIC): 512 µg/mL | MIC (Staphylococcus aureus, with HT61 4 μg/ml, Plate 1, read-out: MIC of HT00800059 + HT61): 128 µg/mL | MIC (drug alone, Plate 2): 512 µg/mL | HT00800059 MIC in combination (with HT61 4 μg/ml): 128 µg/mL | MIC of HT00800059 + HT61 (with HT61 4 μg/ml, Plate 2): 128 µg/mL
